Laboratory results reported in patent publication US20250296971A1, “GASTRIC INHIBITORY PEPTIDE RECEPTOR LIGANDS” (priority 2021, published 2025).
*1 amine or outer side, *2 acyl side, *3 side chain or, on linkers, in order; H or OH if unused. Where a SMILES comes first, the peptide text is derived from it. Bridges are numbered along the chain shown (N, C = ends). Side-chain parts run from the residue outwards. [ ]: non-standard residue; d: D form. The star is where a group is joined. X5 = NC(=O)[C@H](CCCCNC(=O)CN1CCN(CC(=O)O)CCN(CC(=O)O)CCN(CC(=O)O)CC1)NC(=O)CCC(=O)NCCCOCCOCCOCCCN*; X3 = O=C(O)CN1CCN(CC(=O)O)CCN(CC(=O)NCCCOCCOCCOCCCN*)CCN(CC(=O)O)CC1; NH(1-deoxy-D-glucityl) = OC[C@@H](O)[C@@H](O)[C@H](O)[C@@H](O)CN*; DOTA = O=C(O)CN1CCN(CC(=O)O)CCN(CC(=O)*)CCN(CC(=O)O)CC1; Trp(5-Br) = N[C@@H](Cc1c[nH]c2ccc(Br)cc12)C(=O)O; Trp(5-Cl) = N[C@@H](Cc1c[nH]c2ccc(Cl)cc12)C(=O)O; Pyridine(2,6-diCH2) = c1cc(C[*:1])nc(C[*:2])c1; NMeW = CN[C@@H](Cc1c[nH]c2ccccc12)C(=O)O; Phe(3-Cl) = N[C@@H](Cc1cccc(Cl)c1)C(=O)O; Phe(2-Cl) = N[C@@H](Cc1ccccc1Cl)C(=O)O; Pro(4R-NH2) = N[C@H]1CN[C@H](C(=O)O)C1; mXylylene = c1cc(C[*:1])cc(C[*:2])c1; Glutaryl = O=C(CCCC(=O)[*:2])[*:1]; X7 = c1cc(CSCCN[*:2])cc(C[*:1])c1; Hyp = O=C(O)[C@@H]1C[C@@H](O)CN1; X1 = O=C(CN1CCC(N[*:1])CC1)[*:2]; Suc = O=C(CCC(=O)[*:2])[*:1]; hLeu = CC(C)CC[C@H](N)C(=O)O; NMeC = CN[C@@H](CS)C(=O)O; hSer = N[C@@H](CCO)C(=O)O; Ac6c = NC1(C(=O)O)CCCCC1; Api = NC1(C(=O)O)CCNCC1; Thp = NC1(C(=O)O)CCOCC1; Aib = CC(C)(N)C(=O)O

Each compound was assayed against T1, GIPR (CHO-K1-hGIPR cells) (Homo sapiens, UniProt P48546) (assay: FACS binding assay). Conditions: competition with 20 nM GIP-057, 4° C. for 1 hour, read-out: pIC50 Category (converted).
T1 construct: host or cells: CHO-K1
T1 sequence (P48546 22-466): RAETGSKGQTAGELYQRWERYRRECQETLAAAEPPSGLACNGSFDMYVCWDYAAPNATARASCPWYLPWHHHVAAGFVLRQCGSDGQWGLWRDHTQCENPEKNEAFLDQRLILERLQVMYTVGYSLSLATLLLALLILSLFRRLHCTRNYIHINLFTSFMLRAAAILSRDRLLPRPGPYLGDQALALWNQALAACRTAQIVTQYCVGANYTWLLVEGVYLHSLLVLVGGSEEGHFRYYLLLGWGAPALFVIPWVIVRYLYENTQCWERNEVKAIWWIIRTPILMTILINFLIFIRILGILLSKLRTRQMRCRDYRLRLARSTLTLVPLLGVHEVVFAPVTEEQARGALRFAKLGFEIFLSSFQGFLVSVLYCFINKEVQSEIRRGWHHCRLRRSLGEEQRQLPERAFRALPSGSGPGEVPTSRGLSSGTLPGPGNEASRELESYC
Summary of the method: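 Peptide binding read by flow cytometry as APC-channel median fluorescence, fitted with a four-parameter logistic to yield EC50 or IC50. Cells were hGIPR-transfected CHO-K1 in PBS with 1% FCS, detected with 1 μg/mL APC-streptavidin, 30 min on ice.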

SMILES	IC50 [nM]
CC[C@H](C)[C@@H]1NC(=O)[C@H](CC(C)C)NC(=O)C2(CCOCC2)NC(=O)[C@@H](NC(=O)[C@@H](CC(C)C)NC(=O)[C@H](CCC(=O)O)NC(=O)[C@@H]2C[C@@H](O)CN2C(=O)[C@H](Cc2c[nH]c3ccc(Cl)cc23)NC(=O)[C@H](Cc2ccccc2Cl)NC(=O)[C@H](CC(=O)O)NC(C)=O)CSCc2cccc(n2)CSC[C@@H](C(=O)N[C@H](CCCCNC(=O)CN2CCN(CC(=O)O)CCN(CC(=O)O)CCN(CC(=O)O)CC2)C(N)=O)NC1=O [GIP-399, Ac-Asp-Ocf-5Clw-Hyp-Glu-leu-[Cys(2Lut)-Thp-Leu-Ile-Cys]-lys(DOT A)-NH2] (Ac-D[Phe(2-Cl)][Trp(5-Cl)][Hyp]E[dL]C[Thp]LIC[dK](DOTA)-NH2; linker 7-11 via Pyridine(2,6-diCH2))	100 to 794
CC[C@H](C)[C@@H]1NC(=O)[C@H](CC(C)C)NC(=O)C(C)(C)NC(=O)[C@@H](NC(=O)[C@H](CC(C)C)NC(=O)[C@H](CCC(=O)O)NC(=O)[C@@H]2CCCN2C(=O)[C@H](Cc2c[nH]c3ccccc23)N(C)C(=O)[C@H](Cc2c[nH]c3ccccc23)NC(=O)[C@H](CC(=O)O)NC(C)=O)CSCc2cccc(c2)CSC[C@@H](C(=O)NCCCOCCOCCOCCCNC(=O)CCC(=O)N[C@@H](CCCCNC(=O)CN2CCN(CC(=O)O)CCN(CC(=O)O)CCN(CC(=O)O)CC2)C(N)=O)NC1=O [GIP-289, Ac-Asp-Trp-Nmw-Pro-Glu-Leu-[Cys(3MeBn)-Aib-Leu-Ile-Cys]-Ttds-Lys(DOTA)-NH2] (Ac-DW[NMeW]PELC[Aib]LIC-X5; linker 7-11 via mXylylene)	> 1000
CC[C@H](C)[C@@H]1NC(=O)[C@H](CC(C)C)NC(=O)C2(CCOCC2)NC(=O)[C@@H](NC(=O)[C@@H](CC(C)C)NC(=O)[C@H](CCC(=O)O)NC(=O)[C@@H]2C[C@@H](O)CN2C(=O)[C@H](Cc2cccc(Cl)c2)NC(=O)[C@H](Cc2c[nH]c3ccccc23)NC(=O)[C@H](CC(=O)O)NC(C)=O)CSCc2cccc(n2)CSC[C@@H](C(N)=O)NC1=O [GIP-320, Ac-Asp-Trp-Mcf-Hyp-Glu-leu-[Cys(2Lut)-Thp-Leu-Ile-Cys]-NH2] (Ac-DW[Phe(3-Cl)][Hyp]E[dL]C[Thp]LIC-NH2; linker 7-11 via Pyridine(2,6-diCH2))	100 to 794
CC[C@H](C)[C@@H]1NC(=O)[C@H](CC(C)C)NC(=O)[C@@H](C)NC(=O)[C@@H](NC(=O)[C@@H](CC(C)C)NC(=O)[C@H](CCC(=O)O)NC(=O)[C@@H]2CCCN2C(=O)[C@H](Cc2c[nH]c3ccccc23)NC(=O)[C@H](Cc2c[nH]c3ccccc23)NC(=O)[C@H](CC(=O)O)NC(=O)CCC(=O)NCCCOCCOCCOCCCNC(=O)CN2CCN(CC(=O)O)CCN(CC(=O)O)CCN(CC(=O)O)CC2)CSCc2cccc(c2)CSC[C@@H](C(N)=O)NC1=O [GIP-268, DOTA-Ttds-Asp-Trp-Trp-Pro-Glu-leu-[Cys(3MeBn)-ala-Leu-Ile-Cys]-NH2] ({X3-Suc}-DWWPE[dL]C[dA]LIC-NH2; linker 7-11 via mXylylene)	100 to 794
CC[C@H](C)[C@@H]1NC(=O)[C@H](CC(C)C)NC(=O)C(C)(C)NC(=O)[C@@H](NC(=O)[C@H](CC(C)C)NC(=O)[C@H](CCC(=O)O)NC(=O)[C@@H]2CCCN2C(=O)[C@H](Cc2c[nH]c3ccccc23)NC(=O)[C@H](Cc2c[nH]c3ccccc23)N(C)C(=O)[C@H](CC(=O)O)NC(C)=O)CSCc2cccc(c2)CSC[C@@H](C(=O)NCCCOCCOCCOCCCNC(=O)CCC(=O)N[C@@H](CCCCNC(=O)CN2CCN(CC(=O)O)CCN(CC(=O)O)CCN(CC(=O)O)CC2)C(N)=O)NC1=O [GIP-297, Ac-Asp-Nmw-Trp-Pro-Glu-Leu-[Cys(3MeBn)-Aib-Leu-Ile-Cys]-Ttds-Lys(DO TA)-NH2] (Ac-D[NMeW]WPELC[Aib]LIC-X5; linker 7-11 via mXylylene)	> 1000
CC[C@H](C)[C@@H]1NC(=O)[C@H](CC(C)C)NC(=O)C(C)(C)NC(=O)[C@@H](N(C)C(=O)[C@H](CC(C)C)NC(=O)[C@H](CCC(=O)O)NC(=O)[C@@H]2CCCN2C(=O)[C@H](Cc2c[nH]c3ccccc23)NC(=O)[C@H](Cc2c[nH]c3ccccc23)NC(=O)[C@H](CC(=O)O)NC(C)=O)CSCc2cccc(c2)CSC[C@@H](C(=O)NCCCOCCOCCOCCCNC(=O)CCC(=O)N[C@@H](CCCCNC(=O)CN2CCN(CC(=O)O)CCN(CC(=O)O)CCN(CC(=O)O)CC2)C(N)=O)NC1=O [GIP-291, Ac-Asp-Trp-Trp-Pro-Glu-Leu-[Nmc(3MeBn)-Aib-Leu-Ile-Cys]-Ttds-Lys(DOTA)-NH2] (Ac-DWWPEL[NMeC][Aib]LIC-X5; linker 7-11 via mXylylene)	> 1000

Same assay, conditions: competition with 20 nM GIP-057, 4° C., 1 hour, read-out: pIC50 Category (converted)

SMILES	IC50 [nM]
CC[C@H](C)[C@@H]1NC(=O)[C@H](CCC(C)C)NC(=O)C(C)(C)NC(=O)[C@@H](NC(=O)[C@@H](CC(C)C)NC(=O)[C@H](CCC(=O)O)NC(=O)[C@@H]2CCCN2C(=O)[C@H](Cc2c[nH]c3ccc(Cl)cc23)NC(=O)[C@H](Cc2c[nH]c3ccccc23)NC(=O)[C@H](CC(=O)O)NC(=O)CCC(=O)NCCCOCCOCCOCCCNC(=O)CN2CCN(CC(=O)O)CCN(CC(=O)O)CCN(CC(=O)O)CC2)CSCc2cccc(c2)CSCCNC1=O [GIP-099, DOTA-Ttds-Asp-Trp-5Clw-Pro-Glu-leu-[Cys(3MeBn)-Aib-Hle-Ile-AET]] ({X3-Suc}-DW[Trp(5-Cl)]PE[dL]C[Aib][hLeu]I; linker 7-C via X7)	< 10
CC[C@H](C)[C@@H]1NC(=O)[C@H](CC(C)C)NC(=O)C2(CCN(C(=O)CN3CCN(CC(=O)O)CCN(CC(=O)O)CCN(CC(=O)O)CC3)CC2)NC(=O)[C@@H](NC(=O)[C@@H](CC(C)C)NC(=O)[C@H](CCC(=O)O)NC(=O)[C@@H]2C[C@@H](N)CN2C(=O)[C@H](Cc2c[nH]c3ccc(Br)cc23)NC(=O)[C@H](Cc2c[nH]c3ccccc23)NC(=O)[C@H](CCO)NC(=O)CCCC(=O)NC[C@H](O)[C@@H](O)[C@H](O)[C@H](O)CO)CSCc2cccc(n2)CSC[C@@H](C(=O)NC2CCN(CC(=O)N[C@H](CCC(=O)NC[C@H](O)[C@@H](O)[C@H](O)[C@H](O)CO)C(N)=O)CC2)NC1=O [GIP-016, AGLU-Glutar-Hse-Trp-5Brw-Tap-Glu-leu-[Cys(2Lut)-Apc(DOTA)-Leu-Ile-Cys]-APAc-glu(AGLU)-NH2] ({NH(1-deoxy-D-glucityl)-Glutaryl}-[hSer]W[Trp(5-Br)][Pro(4R-NH2)]E[dL]C[Api](DOTA)LIC[X1][dE](NH(1-deoxy-D-glucityl))-NH2; linker 7-11 via Pyridine(2,6-diCH2))	< 10
CC[C@H](C)[C@@H]1NC(=O)[C@H](CC(C)C)NC(=O)C2(CCOCC2)NC(=O)[C@@H](NC(=O)[C@@H](CC(C)C)NC(=O)[C@H](CCC(=O)O)NC(=O)[C@@H]2C[C@@H](O)CN2C(=O)[C@H](Cc2c[nH]c3ccc(Cl)cc23)NC(=O)[C@H](Cc2c[nH]c3ccccc23)NC(=O)CCC(=O)O)CSCc2cccc(n2)CSC[C@@H](C(=O)N[C@@H](CCCCNC(=O)CN2CCN(CC(=O)O)CCN(CC(=O)O)CCN(CC(=O)O)CC2)C(N)=O)NC1=O [GIP-115, HO-Succinyl-Trp-5Clw-Hyp-Glu-leu-[Cys(2Lut)-Thp-Leu-Ile-Cys]-Lys(DOTA)-NH2] (Suc-W[Trp(5-Cl)][Hyp]E[dL]C[Thp]LICK(DOTA)-NH2; linker 6-10 via Pyridine(2,6-diCH2))	< 10
CC[C@H](C)[C@@H]1NC(=O)[C@H](CC(C)C)NC(=O)C2(CCCCC2)NC(=O)[C@@H](NC(=O)[C@@H](CC(C)C)NC(=O)[C@H](CCC(=O)O)NC(=O)[C@@H]2CCCN2C(=O)[C@H](Cc2c[nH]c3ccc(Cl)cc23)NC(=O)[C@H](Cc2c[nH]c3ccccc23)NC(=O)[C@H](CC(=O)O)NC(=O)CCC(=O)NCCCOCCOCCOCCCNC(=O)CN2CCN(CC(=O)O)CCN(CC(=O)O)CCN(CC(=O)O)CC2)CSCc2cccc(c2)CSCCNC1=O [GIP-086, DOTA-Ttds-Asp-Trp-5Clw-Pro-Glu-leu-[Cys(3MeBn)-Egz-Leu-Ile-AET]] ({X3-Suc}-DW[Trp(5-Cl)]PE[dL]C[Ac6c]LI; linker 7-C via X7)	< 10
CC[C@H](C)[C@@H]1NC(=O)[C@H](CC(C)C)NC(=O)C2(CCN(C(=O)CCCC(=O)NC[C@H](O)[C@@H](O)[C@H](O)[C@H](O)CO)CC2)NC(=O)[C@@H](NC(=O)[C@@H](CC(C)C)NC(=O)[C@H](CCC(=O)O)NC(=O)[C@@H]2C[C@@H](N)CN2C(=O)[C@H](Cc2c[nH]c3ccc(Cl)cc23)NC(=O)[C@H](Cc2c[nH]c3ccccc23)NC(=O)[C@H](CC(=O)O)NC(=O)[C@@H](CCC(=O)NC[C@H](O)[C@@H](O)[C@H](O)[C@H](O)CO)NC(=O)CN2CCN(CC(=O)O)CCN(CC(=O)O)CCN(CC(=O)O)CC2)CSCc2cccc(n2)CSC[C@@H](C(=O)NC2CCN(CC(=O)N[C@H](CCC(=O)NC[C@H](O)[C@@H](O)[C@H](O)[C@H](O)CO)C(N)=O)CC2)NC1=O [GIP-045, DOTA-glu(AGLU)-Asp-Trp-5Clw-Tap-Glu-leu-[Cys(2Lut)-Apc(AGLU-Glutar)-Leu-Ile-Cys]-APAc-glu(AGLU)-NH2] ({DOTA}-[dE](NH(1-deoxy-D-glucityl))DW[Trp(5-Cl)][Pro(4R-NH2)]E[dL]C[Api]([Glutaryl-NH(1-deoxy-D-glucityl)])LIC[X1][dE](NH(1-deoxy-D-glucityl))-NH2; linker 8-12 via Pyridine(2,6-diCH2))	< 10
